According to PMC3142157, “Sensitive and Specific Fluorescent Probes for Functional Analysis of the Three Major Types of Mammalian ABC Transporters” (PLoS ONE, 2011):

Key:
A549 cells = experiment: Dye uptake flow cytometry MDR assay (MAF / D-values), A549 cells; assay type: cell-based, human; conditions: dye uptake protocol
Protocol: (§1) Detailed protocol for the MDR assay is available in the Instruction Manual for eFluxx-ID® Green or Gold Multi-Drug Resistance Assay Kit (ENZO Life Sciences, Inc., Farmingdale, NY). Briefly, on the day of the assay, cells were collected, washed with PBS and incubated with or without MDR inhibitors in the presence of the eFluxx-ID® Green or Gold probes for 30 min at 37°C and analyzed immediately by flow cytometry. eFluxx-ID® Green or Gold probes are novel xanthene-based small molecule dyes developed for the detection of MDR activity in living cells. In order to exclude dead cells in the analyses, propidium iodide (PI) or 7-actinaminomycin D (7-AAD) solution was added to the cells during the last 5 min of incubation in some experiments.
(§2) To develop a minimal step assay procedure for the dye uptake protocol, three modifications of the protocol were investigated. One set of the cells was treated according to a general “no-wash” protocol (see Instruction Manual for the kit). In the second set of tubes, the reaction was stopped by rapid centrifugation (1 min) at relatively low speed (200×g). After washing with ice-cold PBS and discarding the supernatant, cells were re-suspended in 0.5 ml of ice-cold medium and kept on ice until flow cytometry analysis was performed. The third set of cells was simply spun down (1 min, 200×g) to remove the excess probe, resuspended in ice-cold medium and kept on ice until flow cytometry analysis was performed. eFluxx-ID® Green dye (ex/em 490/514 nm) fluorescence intensity was measured in the FL1/FITC (530/30 filter) channel, and eFluxx-ID® Gold dye (ex/em 530/555 nm) fluorescence intensity was monitored in the FL2/PE (585/42 filter) channel.
(§3) Experiments were performed using a FACS Calibur benchtop flow cytometer (BD Biosciences, San Jose, CA) equipped with a blue (488 nm) laser, and the signals were registered in the FITC (530/30 filter), PE (585/42 filter) and PerCP (670 LP filter) channels. eFluxx-ID® Green dye fluorescence was measured in the FL1/FITC channel, and eFluxx-ID® Gold dye fluorescence, in the FL2/PE channel. Data analysis was performed using FlowJo 8.8.2 software (Tree Star, Inc., Ashland, OR).
(§4) All of the experiments were performed at least three times. Results were expressed as mean ± S.E. Statistical comparisons were made using an unpaired two-tailed Student's t-test. A P value of <0.05 was considered significant. Flow cytometry data were analyzed by comparison of median fluorescence, by using Kolmogorov-Smirnov statistics (D-value) or by calculating MDR Activity Factor (MAF) values using the following formula: MAF = 100*((MFIinh−MFI0)/MFIinh), wherein MFIinh and MFI0 are the mean fluorescence intensity values measured in the presence and absence of inhibitor [7].

HL-60/MX1 cells = experiment: Dye uptake flow cytometry MDR assay (MAF), HL-60/MX1 cells; assay type: cell-based, human
Protocol: (§5) Detailed protocol for the MDR assay is available in the Instruction Manual for eFluxx-ID® Green or Gold Multi-Drug Resistance Assay Kit (ENZO Life Sciences, Inc., Farmingdale, NY). […] In order to exclude dead cells in the analyses, propidium iodide (PI) or 7-actinaminomycin D (7-AAD) solution was added to the cells during the last 5 min of incubation in some experiments. Experiments were performed using a FACS Calibur benchtop flow cytometer (BD Biosciences, San Jose, CA) equipped with a blue (488 nm) laser, and the signals were registered in the FITC (530/30 filter), PE (585/42 filter) and PerCP (670 LP filter) channels. eFluxx-ID® Green dye fluorescence was measured in the FL1/FITC channel, and eFluxx-ID® Gold dye fluorescence, in the FL2/PE channel. Data analysis was performed using FlowJo 8.8.2 software (Tree Star, Inc., Ashland, OR). All of the experiments were performed at least three times. Results were expressed as mean ± S.E. Statistical comparisons were made using an unpaired two-tailed Student's t-test. […] Additionally, HCT-8 cell line reported to overexpress both MDR1 and MRP transporters, [21] was tested. HCT-8, HCT-15, HepG2, HL-60 and HL-60/MX1 cells were grown on tissue culture dishes and on the day of assay were incubated with eFluxx-ID® Green and Gold probes with and without inhibitors according to the described dye uptake protocol (Materials and Methods) and analyzed by flow cytometry.

HCT-15 cells = experiment: Dye uptake flow cytometry MDR assay (MAF), HCT-15 cells; assay type: cell-based, human
Protocol: as §5

HCT-8 cells = experiment: Dye uptake flow cytometry MDR assay (MAF), HCT-8 cells; assay type: cell-based, human
Protocol: as §5

HeLa cells = experiment: Dye uptake flow cytometry MDR assay (MAF), HeLa cells; assay type: cell-based, human; conditions: dye uptake protocol
Protocol: as §1, §2, §3, §4

CHO K1 cells = experiment: Dye uptake flow cytometry MDR assay (MAF / D-values), CHO K1 cells; assay type: cell-based, hamster; conditions: CHO K1 cells, dye uptake protocol
Protocol: as §1, §2, §3, §4

HL-60 cells = experiment: Dye uptake flow cytometry MDR assay (MAF), HL-60 cells; assay type: cell-based, human
Protocol: as §5

HepG2 cells = experiment: Dye uptake flow cytometry MDR assay (MAF), HepG2 cells; assay type: cell-based, human
Protocol: as §5

[1] = probe with vs without fumitremorgin C
[2] = probe with vs without probenecid
[3] = probe with vs without verapamil
[4] = probe with vs without CsA, mean ± SEM
[5] = probe with vs without MK571, mean ± SEM
[6] = probe with vs without Nov, mean ± SEM
[7] = probe with vs without Ver, mean ± SEM

In the case of Calcein AM, the “MAF value, Fumitremorgin C” value (A549 cells; [1]) is reported as 1.3, the “MAF value, Probenecid” value (A549 cells; [2]) is reported as 19.5 and the “MAF value, Verapamil” value (A549 cells; [3]) is reported as 28.0. The “MAF value, CsA” value (HL-60/MX1 cells; [4]) was 18.2±2.7, the “MAF value, MK571” value (HL-60/MX1 cells; [5]) was 10.8±1.8 and the “MAF value, Nov” value (HL-60/MX1 cells; [6]) was 5.9±1.2. The “MAF value, Ver” value (HL-60/MX1 cells; [7]) was 1.6±0.3, the “MAF value, CsA” value (HCT-15 cells; [4]) was 67.2±2.0 and the “MAF value, MK571” value (HCT-15 cells; [5]) was 13.5±2.9. For the same substance, the “MAF value, Nov” value (HCT-15 cells; [6]) was 4.3±2.2, the “MAF value, Ver” value (HCT-15 cells; [7]) was 62.9±2.6 and the “MAF value, CsA” value (HCT-8 cells; [4]) was 46.5±5.1. The “MAF value, MK571” value (HCT-8 cells; [5]) was 31.1±4.7, the “MAF value, Nov” value (HCT-8 cells; [6]) was 7.1±0.4 and the “MAF value, Ver” value (HCT-8 cells; [7]) was 25.9±0.9. The “MAF value, Fumitremorgin C” value (HeLa cells; [1]) was 0.2, the “MAF value, Probenecid” value (HeLa cells; [2]) was 12.2 and the “MAF value, Verapamil” value (HeLa cells; [3]) was 13.0. The “MAF value, Fumitremorgin C” value (CHO K1 cells; [1]) was 6.4, the “MAF value, Probenecid” value (CHO K1 cells; [2]) was 55.3 and the “MAF value, Verapamil” value (CHO K1 cells; [3]) was 63.9. For the same substance, the “MAF value, CsA” value (HL-60 cells; [4]) was 15.2±2.5, the “MAF value, MK571” value (HL-60 cells; [5]) was 8.0±1.7 and the “MAF value, Nov” value (HL-60 cells; [6]) was 8.6±1.5. The “MAF value, Ver” value (HL-60 cells; [7]) was 2.5±1.1, the “MAF value, CsA” value (HepG2 cells; [4]) was 59.0±2.4 and the “MAF value, MK571” value (HepG2 cells; [5]) was 40.7±4.5. For the same substance, the “MAF value, Nov” value (HepG2 cells; [6]) was 3.0±0.1 and the “MAF value, Ver” value (HepG2 cells; [7]) was 22.0±2.9.
